Assay [1] addresses T1, Human vitronectin receptor (αv β3) (Homo sapiens, UniProt P05106+P06756).
T1 construct: Human vitronectin receptor (αv β3) was purified from human placenta; from tissue; host or cells: human placenta
The assay can be described thus: Vitronectin adhesion assay (solid phase receptor assay, αvβ3). It counts as binding. Particulars: inhibition of binding of biotinylated human vitronectin (1 nM) to purified receptor; Table I; read-out: AvB3 IC50. Put shortly: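 Placental αvβ3 (100 ng/well) coated in TBS with 1 mM Ca, Mg, Mn, pH 7.4, then compound competed with 1 nM biotinylated vitronectin for 2 h at room temperature (top compound concentration 1.0×10^-4 M). Bound ligand detected with HRP anti-biotin/OPD at 450 nm; values normalized to maximum binding, four-parameter curve fit.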

For assay [2], the target named is T2, Human fibrinogen receptor (αIIb β3) (Homo sapiens, UniProt P05106+P08514).
T2 construct: Human fibrinogen receptor (αIIb β3) was purified from outdated platelets; from tissue; host or cells: human outdated platelets
T2 sequence (P08514 32-887 limits assumed): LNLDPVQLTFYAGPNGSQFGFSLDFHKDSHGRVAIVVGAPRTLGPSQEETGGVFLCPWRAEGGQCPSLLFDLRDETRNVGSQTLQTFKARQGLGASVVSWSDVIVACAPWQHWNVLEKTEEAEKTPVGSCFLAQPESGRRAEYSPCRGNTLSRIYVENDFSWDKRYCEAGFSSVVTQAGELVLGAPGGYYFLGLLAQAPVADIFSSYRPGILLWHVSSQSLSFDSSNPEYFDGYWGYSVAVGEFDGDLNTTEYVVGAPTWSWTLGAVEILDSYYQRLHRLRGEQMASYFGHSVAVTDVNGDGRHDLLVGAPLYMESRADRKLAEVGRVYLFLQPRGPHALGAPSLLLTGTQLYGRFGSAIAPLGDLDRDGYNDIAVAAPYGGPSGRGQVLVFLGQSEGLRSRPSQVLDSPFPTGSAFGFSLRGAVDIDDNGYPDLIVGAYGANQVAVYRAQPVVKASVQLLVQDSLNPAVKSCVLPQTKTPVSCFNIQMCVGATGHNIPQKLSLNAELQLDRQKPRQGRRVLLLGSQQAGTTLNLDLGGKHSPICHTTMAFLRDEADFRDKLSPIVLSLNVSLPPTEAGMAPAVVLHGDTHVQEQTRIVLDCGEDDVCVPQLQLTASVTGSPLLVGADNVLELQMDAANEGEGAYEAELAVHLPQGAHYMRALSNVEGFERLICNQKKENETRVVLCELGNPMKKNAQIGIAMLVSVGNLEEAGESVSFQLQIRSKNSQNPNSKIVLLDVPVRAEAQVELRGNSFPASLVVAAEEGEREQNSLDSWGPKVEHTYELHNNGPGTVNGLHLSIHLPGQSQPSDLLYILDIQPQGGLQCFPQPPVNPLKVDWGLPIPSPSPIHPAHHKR
T2 sequence (P08514 891-1039 limits assumed): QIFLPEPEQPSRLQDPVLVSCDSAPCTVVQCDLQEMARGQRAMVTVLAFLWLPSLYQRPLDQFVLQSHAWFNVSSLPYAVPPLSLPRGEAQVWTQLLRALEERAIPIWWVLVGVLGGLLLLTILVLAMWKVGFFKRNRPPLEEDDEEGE
T2 sequence (P05106 27-788): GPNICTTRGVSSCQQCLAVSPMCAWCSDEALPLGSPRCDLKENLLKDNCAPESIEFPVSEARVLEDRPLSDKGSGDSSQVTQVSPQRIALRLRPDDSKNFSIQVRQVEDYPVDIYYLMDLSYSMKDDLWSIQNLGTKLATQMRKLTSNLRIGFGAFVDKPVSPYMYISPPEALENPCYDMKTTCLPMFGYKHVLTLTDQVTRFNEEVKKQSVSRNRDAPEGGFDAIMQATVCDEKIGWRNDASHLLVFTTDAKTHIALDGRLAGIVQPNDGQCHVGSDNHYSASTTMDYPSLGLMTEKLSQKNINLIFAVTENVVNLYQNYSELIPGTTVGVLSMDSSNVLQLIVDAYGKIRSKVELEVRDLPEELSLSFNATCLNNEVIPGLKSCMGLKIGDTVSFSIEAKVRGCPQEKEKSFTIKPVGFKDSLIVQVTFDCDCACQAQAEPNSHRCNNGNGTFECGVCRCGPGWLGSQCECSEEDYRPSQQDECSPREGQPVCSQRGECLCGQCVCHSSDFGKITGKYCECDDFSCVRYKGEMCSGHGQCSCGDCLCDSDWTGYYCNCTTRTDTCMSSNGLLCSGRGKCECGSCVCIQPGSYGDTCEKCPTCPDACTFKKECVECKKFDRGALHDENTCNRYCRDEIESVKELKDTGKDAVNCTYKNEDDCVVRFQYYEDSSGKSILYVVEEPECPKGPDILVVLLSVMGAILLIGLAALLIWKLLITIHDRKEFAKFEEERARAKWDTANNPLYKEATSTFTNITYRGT
Kind of assay: Purified IIb/IIIa receptor assay (solid phase receptor assay). The note with it: inhibition of binding of biotinylated human vitronectin (1 nM) to purified receptor; Table I. Put shortly:
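Platelet-purified αIIbβ3 (100 ng/well) coated overnight at 4 °C, then competed 2 h at room temperature against 1 nM biotinylated human vitronectin in TBS with 1.0 mM Ca/Mg/Mn, pH 7.4, 1% BSA; top compound 1.0×10^-4 M. Bound ligand detected by HRP anti-biotin, A450, normalized to maximum binding, four-parameter fit.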

These results are taken from patent publication US5852210A, “Cinnamic acid derivatives” (G. D. Searle & Co., priority 1997, dated 1998).

pIC50: −log10 of the molar value. Counter-ions that a name gives are not always drawn.

T1 sequence (P06756 31-889 limits assumed): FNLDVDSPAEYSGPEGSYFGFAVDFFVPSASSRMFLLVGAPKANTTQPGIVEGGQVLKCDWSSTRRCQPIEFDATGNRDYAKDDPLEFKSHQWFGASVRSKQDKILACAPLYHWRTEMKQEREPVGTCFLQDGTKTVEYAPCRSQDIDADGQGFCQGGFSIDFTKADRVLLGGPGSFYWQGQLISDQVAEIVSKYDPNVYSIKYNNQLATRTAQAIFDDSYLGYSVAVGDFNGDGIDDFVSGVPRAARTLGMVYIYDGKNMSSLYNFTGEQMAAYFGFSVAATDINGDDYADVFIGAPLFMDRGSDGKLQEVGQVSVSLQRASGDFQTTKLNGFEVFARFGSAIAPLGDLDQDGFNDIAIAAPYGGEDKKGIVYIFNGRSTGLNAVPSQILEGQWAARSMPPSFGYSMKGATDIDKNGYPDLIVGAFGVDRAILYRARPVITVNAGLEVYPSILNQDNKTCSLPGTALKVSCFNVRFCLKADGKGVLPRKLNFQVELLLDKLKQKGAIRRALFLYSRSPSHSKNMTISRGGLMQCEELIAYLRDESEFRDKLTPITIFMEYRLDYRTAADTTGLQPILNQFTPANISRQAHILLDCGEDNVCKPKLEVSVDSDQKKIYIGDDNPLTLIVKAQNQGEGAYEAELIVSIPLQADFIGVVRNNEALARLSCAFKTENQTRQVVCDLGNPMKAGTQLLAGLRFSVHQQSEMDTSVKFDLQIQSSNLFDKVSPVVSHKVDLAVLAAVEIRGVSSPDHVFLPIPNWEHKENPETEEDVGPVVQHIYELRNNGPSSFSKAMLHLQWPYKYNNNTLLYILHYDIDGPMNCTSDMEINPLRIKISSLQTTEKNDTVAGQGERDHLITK
T1 sequence (P06756 891-1048 limits assumed): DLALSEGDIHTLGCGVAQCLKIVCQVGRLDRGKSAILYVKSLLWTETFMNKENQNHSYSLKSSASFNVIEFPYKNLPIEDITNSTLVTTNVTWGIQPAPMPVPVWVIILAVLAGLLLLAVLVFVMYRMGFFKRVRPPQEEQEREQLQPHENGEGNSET
T1 sequence (P05106 27-788): as the sequence (P05106 27-788) above

Turning to `COc1cc(NC(=O)c2cc(NC(=N)N)cc(C(F)(F)F)c2)ccc1/C=C/C(=O)O` [Example 55, 3-[4-[[[3-[(aminoiminomethyl)amino]-5-(trifluoromethyl)phenyl]carbonyl]amino]-2-methoxyphenyl]propenoic acid, trifluoroacetate salt], the pIC50 was 8.44 in assay [1] and 6.36 in assay [2].
As for `O=C(O)/C=C/c1ccc(NC(=O)c2cccc(NC3=NCCCS3)c2)cc1` [Example 56, 3-[4-[[[3-[(5,6-dihydro-4H-1,3-thiazin-2-yl)amino]phenyl]carbonyl]amino]phenyl]propenoic acid, trifluoroacetate salt], the pIC50 in assay [1] is 8.39; in assay [2] it was 6.18.
In the case of `Cc1cc(/C=C/C(=O)O)cc(C)c1NC(=O)c1cccc(NC2=NCCCS2)c1` [Example 57, 3-[4-[[[3-[(5,6-dihydro-4H-1,3-thiazin-2-yl)amino]phenyl]carbonyl]amino]3,5-dimethylphenyl]propenoic acid, trifluoroacetate salt], the pIC50 was 7.59 in assay [1] and 4.89 in assay [2].
On to `C/C(=C\C(=O)O)c1ccc(NC(=O)c2cccc(NC(=N)N)c2)cc1` [Example 59, 3-[4-[[[3-[(aminoiminomethyl)amino]phenyl]carbonyl]amino]phenyl]-2-butenoicacid, trifluoroacetate salt], for which the values for the pIC50 in assay [1] and in assay [2] were 5.90 and 5.29, respectively.
Turning to `N=C(N)Nc1cccc(C(=O)Nc2ccc(/C=C(\NC(=O)c3ccccc3)C(=O)O)cc2)c1` [Example 60, 3-[4-[[[3-[(aminoiminomethyl)amino]phenyl]carbonyl]amino]phenyl]-2-[(phenylcarbonyl)amino]propenoic acid, trifluoroacetate salt], the negative logarithm of the IC50 (pIC50) in assay [1] was 7.17; in assay [2], 6.36.
As for `O=C(O)/C=C/c1cccc(CNC(=O)c2cccc(NC3=NCCCN3)c2)c1` [Example 62, 3-[3-[[[[3-[(1,4,5,6-tetrahydropyrimidin-2-yl)amino]phenyl]carbonyl]amino]methyl]phenyl]propenoic acid, monohydrochloride], the negative-log IC50 (pIC50) in assay [1] was 8.69; in assay [2], 4.63.
The matching figures for `O=C(O)/C=C/c1cccc(CNC(=O)c2cccc(NC(=O)NCc3ccccc3)c2)c1` [Example 64, 3-[3-[[[[3-[[[(phenylmethyl)amino]carbonyl]amino]phenyl]carbonyl]amino]methyl]phenyl]propenoic acid, trifluoroacetate salt]: 5.66 and 4.79.
Take `CC(C)COC(=O)N1CCN=C1Nc1cccc(C(=O)NCc2cccc(/C=C/C(=O)O)c2)c1` [Example 65, 3-[3-[[[[3-[[4,5-dihydro-1-[(2-methylpropoxy)carbonyl]-1H-imidazol-2-yl]amino]phenyl]carbonyl]amino]methyl]phenyl]propenoic acid, monohydrochloride hydrate]: the negative-log IC50 (pIC50) was 7.92 in assay [1] and 5.31 in assay [2].
For the compound `O=C(O)/C=C/c1cccc(CNC(=O)c2cccc(NC3=NCCN3)c2)c1` [Example 67, 3-[3-[[[[3-[(4,5-dihydro-1H-imidazol-2-yl)amino]phenyl]carbonyl]amino]methyl]phenyl]propenoic acid, monohydrochloride hydrate], the pIC50 is 8.64 in assay [1] and 4.92 in assay [2].
The matching figures for `O=C(O)/C=C/c1cccc(CNC(=O)c2cc(NC3=NCCCN3)cc(C(F)(F)F)c2)c1` [Example 69, 3-[3-[[[[3-[(1,4,5,6-tetrahydropyrimidin-2-yl)amino]-5-(trifluoromethyl)phenyl]carbonyl]amino]methyl]phenyl]propenoic acid, dihydrochloride hydrate]: 8.75 and 4.41.
In the case of `O=C(O)/C=C/c1cccc(CNC(=O)c2cc(NC3=NCCN3)cc(C(F)(F)F)c2)c1` [Example 71, 3-[3-[[[[3-[(4,5-dihydro-1H-imidazol-2-yl)amino]-5-(trifluoromethyl)phenyl]carbonyl]amino]methyl]phenyl]propenoic acid, monohydrochloride hydrate], the pIC50 in assay [1] is 8.88; in assay [2] it was 4.73.
In the same order, the values of `O=C(O)/C=C/c1cccc(CNC(=O)c2cccc(Nc3ncccn3)c2)c1` [Example 73, 3-[3-[[[[3-[(2-pyrimidinyl)amino]phenyl]carbonyl]amino]methyl]phenyl]propenoic acid, trifluoroacetate salt] are 4.69 and 4.18.
Regarding `CC/C(=C\C(=O)O)c1cccc(CNC(=O)c2cccc(NC(=N)N)c2)c1` [Example 74, 3-[3-[[[[3-[(aminoiminomethyl)amino]phenyl]carbonyl]amino]methyl]phenyl]-2E-pentenoic acid, trifluoroacetate salt hydrate], the negative logarithm of the IC50 (pIC50) in assay [1] was 5.57; in assay [2] it was less than 4.00.
In the same order, the values of `N=C(N)Nc1cccc(C(=O)NCc2cccc(C(=CC(=O)O)c3cc(Cl)cc(Cl)c3)c2)c1` [Example 75, 3-[3-[[[[3-[(aminoiminomethyl)amino]phenyl]carbonyl]amino]methyl]phenyl]-3-(3,5-dichlorophenyl) propenoic acid, trifluoroacetate salt] are 4.37 and less than 4.00.
Turning to `O=C(O)/C=C/c1ccc2c(c1)CCN2C(=O)c1cccc(NC2=NCCCN2)c1` [Example 76, 3-[2,3-dihydro-1-[[3-[(1,4,5,6-tetrahydropyrimidin-2-yl)amino]phenyl]carbonyl]-1H-indol-5-yl]propenoic acid, trifluoroacetate salt], the pIC50 in assay [1] is 8.06; in assay [2] it was 6.08.
The matching figures for `O=C(O)/C=C/c1ccc2c(c1)CCN2C(=O)c1cccc(NC2=NCCN2)c1` [Example 77, 3-[1-[[3-[(4,5-dihydro-1H-imidazol-2-yl)amino]phenyl]carbonyl]2,3-dihydro-1H-indol-5-yl]propenoic acid, trifluoroacetate salt]: 7.91 and 6.64.
Take `O=C(O)/C=C/c1ccc2c(c1)CCCN2C(=O)c1cccc(NC2=NCCCN2)c1` [Example 78, 3-[1-[[3-[(1,4,5,6-tetrahydropyrimidin-2-yl)amino]phenyl]carbonyl]-1,2,3,4-tetrahydro-quinolin-6-yl]propenoic acid, trifluoroacetate salt]: the results for the pIC50 in assay [1] and in assay [2] were 7.25 and 5.75, respectively.
The matching figures for `N=C(N)Nc1cccc(C(=O)COc2cccc(/C=C/C(=O)O)c2)c1` [Example 79, 3-[3-[2-[3-[(aminoimino)methyl]amino]phenyl]-2-oxoethoxy]phenyl]propenoic acid, trifluoroacetate salt]: 7.92 and 6.38.
Take `O=C(O)/C=C/c1cccc(OCC(=O)c2cccc(NC3=NCCN3)c2)c1` [Example 80, 3-[3-[2-[3-[(4,5-dihydro-1H-imidazol-2-yl)amino]phenyl]-2-oxoethoxy]phenyl]propenoic acid, trifluoroacetate salt]: the negative-log IC50 (pIC50) is 8.99 in assay [1] and 5.46 in assay [2].
`N=C(N)Nc1cccc(C(O)CNc2cccc(/C=C/C(=O)O)c2)c1` (stereo not shown) [Example 81, 3-[3-[[2-[3-[(aminoiminomethyl)amino]phenyl]-2-hydroxyethyl]amino]phenyl]propenoic acid, (bis)trifluoroacetate salt hydrate]: the pIC50 in assay [1] was 7.27; in assay [2], 5.30.
In the case of `O=C(O)/C=C/c1cccc(C(=O)COc2cccc(NC3=NCCN3)c2)c1` [Example 83, 3-[3-[2-[3-[(4,5-dihydro-1H-imidazol-2-yl)amino]phenoxy]acetyl]phenyl]propenoic acid, trifluoroacetate salt], the pIC50 in assay [1] was 7.66; in assay [2], 5.00.
The matching figures for `N=C(N)Nc1cccc(/C=C/C(=O)c2ccc(F)c(/C=C/C(=O)O)c2)c1` [Example 84, 3-[5-[3-[3-[(aminoiminomethyl)amino]phenyl]-1-oxopropenyl]-2-fluorophenyl]propenoic acid, trifluoroacetate salt]: 6.05 and 4.45.
The matching figures for `O=C(O)C=Cc1cc(C(=O)C=Cc2cccc(C3=NCCCN3)c2)ccc1F` [Example 85, 3-[5-[3-[3-[(1,4,5,6-tetrahydrolpyrimidin-2-yl)]phenyl]-1-oxopropenyl]-2-fluorophenyl]propenoic acid, trifluoroacetate salt]: 7.04 and 4.68.
For the compound `COc1ccc(/C=C/C(=O)O)cc1C(=O)/C=C/c1cccc(NC(=N)N)c1` [Example 86, 3-[3-[3-[3-[(aminoiminomethyl)amino]phenyl]-1-oxopropenyl]-4-methoxyphenyl]propenoic acid, trifluoroacetate salt], the pIC50 in assay [1] was 6.24; in assay [2] it was 6.25.
The matching figures for `COc1ccc(/C=C/C(=O)O)cc1C(=O)/C=C/c1cccc(NC2=NCCN2)c1` [Example 87, 3-[3-[3-[3-[(4,5-dihydro-1H-imidazol-2-yl)amino]phenyl]-1-oxopropenyl]-4-methoxyphenyl]propenoic acid, trifluoroacetate salt]: 7.04 and 5.58.
The matching figures for `N=C(N)Nc1cccc(/C=C/C(=O)c2cccc(/C=C/C(=O)O)c2)c1` [Example 88, 3-[3-[3-[3-[(aminoiminomethyl)amino]phenyl]-1-oxopropenyl]phenyl]propenoic acid, trifluoroacetate salt]: 7.43 and 5.58.
